Measured values: ChEMBL document CHEMBL1149517, “Synthesis and molecular modeling of a lisinopril-tryptophan analogue inhibitor of angiotensin I-converting enzyme” (Bioorg Med Chem Lett, 2006)
Active and inactive are the calls of the source. The calls are words filed in the database; no cut-off is given here.

Legend:
[1] = target: T1, Angiotensin-converting enzyme (Homo sapiens, UniProt P12821); experiment: Inhibition of testis ACE C domain
[2] = target: T1, Angiotensin-converting enzyme; experiment: Selectivity for ACE C domain over ACE N domain
[3] = target: T1, Angiotensin-converting enzyme; experiment: Inhibition of somatic ACE N domain upto 500 uM

T1 sequence (P12821 whole entry): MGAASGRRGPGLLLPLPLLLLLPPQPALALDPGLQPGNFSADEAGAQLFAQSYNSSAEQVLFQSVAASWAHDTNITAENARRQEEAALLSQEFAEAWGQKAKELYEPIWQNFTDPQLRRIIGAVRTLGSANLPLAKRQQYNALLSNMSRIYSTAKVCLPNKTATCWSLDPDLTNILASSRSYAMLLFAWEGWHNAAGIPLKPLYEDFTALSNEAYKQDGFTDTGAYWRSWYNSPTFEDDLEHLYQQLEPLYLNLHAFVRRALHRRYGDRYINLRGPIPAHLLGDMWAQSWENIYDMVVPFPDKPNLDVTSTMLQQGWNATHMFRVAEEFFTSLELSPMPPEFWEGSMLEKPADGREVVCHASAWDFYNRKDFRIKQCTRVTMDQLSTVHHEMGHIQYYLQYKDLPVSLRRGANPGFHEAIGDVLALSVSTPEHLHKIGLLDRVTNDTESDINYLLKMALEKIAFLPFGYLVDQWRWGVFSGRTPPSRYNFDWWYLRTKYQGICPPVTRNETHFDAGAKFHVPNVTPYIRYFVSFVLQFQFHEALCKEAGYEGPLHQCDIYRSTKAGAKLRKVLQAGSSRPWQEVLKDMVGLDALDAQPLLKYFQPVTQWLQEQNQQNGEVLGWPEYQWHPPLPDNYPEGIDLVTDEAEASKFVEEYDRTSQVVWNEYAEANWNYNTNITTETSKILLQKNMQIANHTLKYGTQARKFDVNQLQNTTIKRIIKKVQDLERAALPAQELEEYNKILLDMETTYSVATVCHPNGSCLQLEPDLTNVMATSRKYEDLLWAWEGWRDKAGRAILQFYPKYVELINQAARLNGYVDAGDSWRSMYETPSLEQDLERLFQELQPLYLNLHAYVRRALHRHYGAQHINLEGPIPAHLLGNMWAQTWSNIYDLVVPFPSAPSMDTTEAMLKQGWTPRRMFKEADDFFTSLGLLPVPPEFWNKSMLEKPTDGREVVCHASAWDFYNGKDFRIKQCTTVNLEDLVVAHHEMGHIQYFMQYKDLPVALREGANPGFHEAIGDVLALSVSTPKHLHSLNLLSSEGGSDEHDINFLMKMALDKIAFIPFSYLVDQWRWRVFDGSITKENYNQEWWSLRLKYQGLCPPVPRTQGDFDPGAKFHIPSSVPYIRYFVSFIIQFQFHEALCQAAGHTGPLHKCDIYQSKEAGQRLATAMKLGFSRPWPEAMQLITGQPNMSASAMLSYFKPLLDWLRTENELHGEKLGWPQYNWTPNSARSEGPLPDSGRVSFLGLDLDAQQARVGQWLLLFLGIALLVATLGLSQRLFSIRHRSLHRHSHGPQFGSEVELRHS

| SMILES | Ki [1] | Ratio Ki [2] | Activity [3] |
| --- | --- | --- | --- |
| NCCCC[C@H](N[C@@H](CCc1ccccc1)C(=O)O)C(=O)N[C@@H](Cc1c[nH]c2ccccc12)C(=O)O | 7 µM | > 100 | inactive |
| NCCCC[C@H](N[C@H](CCc1ccccc1)C(=O)O)C(=O)N[C@@H](Cc1c[nH]c2ccccc12)C(=O)O | 26.3 µM | > 25 | inactive |
